Measured values as given in PMC9204775 (ACS Chemical Neuroscience, 2022).

Key:
[1] = system: human α7 nAChRs; conditions: previous studies; cited from earlier work
[2] = target: T1, human (α4)2(β2)3 nAChR (Homo sapiens, UniProt P17787+P43681); assay: Two-electrode voltage-clamp recording, (α4)2(β2)3 nAChRs expressed in Xenopus oocytes (α4:β2 cRNA 1:10); format: cell-based; conditions: for stoichiometry selectivity of antagonism, (α4)2(β2)3 versus (α4)3(β2)2 nAChRs: 100 μM antibiotic coapplied with EC50 concentration of ACh, compared with (α4)3(β2)2; for remaining activity at 100 µM: read-out: (α4)2(β2)3 nAChR (% control response to ACh)
T1 construct: expressed in transfected cells; host or cells: Xenopus laevis oocytes (cRNA injection)
T1 sequence (P43681 27-627): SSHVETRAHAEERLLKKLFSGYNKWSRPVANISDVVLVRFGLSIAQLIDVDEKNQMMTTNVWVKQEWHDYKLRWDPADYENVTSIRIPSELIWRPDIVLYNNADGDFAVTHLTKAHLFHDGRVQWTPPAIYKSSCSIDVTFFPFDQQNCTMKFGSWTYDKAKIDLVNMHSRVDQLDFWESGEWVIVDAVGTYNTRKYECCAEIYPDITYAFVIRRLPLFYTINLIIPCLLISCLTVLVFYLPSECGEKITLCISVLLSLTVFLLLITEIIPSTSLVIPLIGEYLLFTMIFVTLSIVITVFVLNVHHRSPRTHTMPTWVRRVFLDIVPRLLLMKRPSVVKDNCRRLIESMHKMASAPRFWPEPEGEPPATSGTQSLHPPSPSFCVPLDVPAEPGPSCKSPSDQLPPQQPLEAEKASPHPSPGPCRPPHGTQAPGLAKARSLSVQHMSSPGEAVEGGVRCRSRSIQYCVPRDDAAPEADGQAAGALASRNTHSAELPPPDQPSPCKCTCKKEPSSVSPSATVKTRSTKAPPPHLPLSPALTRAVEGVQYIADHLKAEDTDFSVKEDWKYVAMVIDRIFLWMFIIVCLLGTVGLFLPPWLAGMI
T1 sequence (P17787 26-502): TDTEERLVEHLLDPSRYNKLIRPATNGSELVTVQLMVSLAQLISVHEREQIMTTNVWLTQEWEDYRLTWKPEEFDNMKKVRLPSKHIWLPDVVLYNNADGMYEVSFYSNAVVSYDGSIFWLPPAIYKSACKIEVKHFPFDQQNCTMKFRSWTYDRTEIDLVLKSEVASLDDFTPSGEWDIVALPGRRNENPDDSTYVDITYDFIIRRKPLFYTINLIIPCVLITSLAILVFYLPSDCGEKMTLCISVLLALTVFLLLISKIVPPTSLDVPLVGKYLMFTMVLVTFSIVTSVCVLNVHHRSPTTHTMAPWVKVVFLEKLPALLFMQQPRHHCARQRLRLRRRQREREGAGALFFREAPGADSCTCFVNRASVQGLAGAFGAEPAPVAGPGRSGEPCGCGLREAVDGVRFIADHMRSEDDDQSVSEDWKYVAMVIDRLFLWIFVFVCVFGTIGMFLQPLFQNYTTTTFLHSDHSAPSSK
Method: (§2) To achieve heterologous expression of human α4β2 nAChRs in two distinct subunit stoichiometries [(α4)2(β2)3 and (α4)3(β2)2], a well-established protocol was employed in which Xenopus laevis oocytes were injected with α4 and β2 cRNA in ratios of 1:10 and 10:1, respectively.[19],[20] […] Oocytes were injected, using a Drummond variable volume microinjector, with 32.2 nL of cRNA containing either a mixture of 30 ng/μL human α4 and 300 ng/μL human β2 or 300 ng/μL human α4 and 30 ng/μL human β2 cRNAs.
(§3) Xenopus were anesthetized by immersion in 0.2% MS222 for 15 min (or until complete anesthesia was confirmed by absence of leg-withdrawal and righting reflex), followed by cranial concussion, decapitation, and pithing. Xenopus oocytes were isolated, maintained, and injected with cRNA, as described previously.[21] […] Application of compounds was controlled by LabChart software (AD Instruments) using a BPS-8 solenoid valve solution exchange system (ALA Scientific Inc.). Typically, agonists were applied for 5 s or until a plateau in the response was observed. Antagonists were preapplied for 30 s and then coapplied with agonist for 5 s or until a plateau in the response was observed.
(§4) For individual pairwise comparisons, statistical significance was determined using unpaired Student’s t tests or ANOVA for multiple comparisons. Dose–response curves were fitted by GraphPad Prism, using the following equation (where I is the current, Imax is the maximum current, the EC50 is the concentration of agonist that elicits a half-maximal response, and nH is the Hill coefficient): [drawing 1]

[3] = target: human (α4)3(β2)2 nAChR (Homo sapiens, UniProt P17787+P43681); assay: Two-electrode voltage-clamp recording, (α4)3(β2)2 nAChRs expressed in Xenopus oocytes (α4:β2 cRNA 10:1); conditions: for remaining activity at 100 µM: read-out: (α4)3(β2)2 nAChR (% control response ACh)
Sequence of human (α4)3(β2)2 nAChR (P43681 27-627): as the sequence (P43681 27-627) above
Sequence of human (α4)3(β2)2 nAChR (P17787 26-502): as the sequence (P17787 26-502) above
Method: as §2, §3, §4

[4] = target: α4β2 nAChRs containing the β2^V278A subunit (Homo sapiens, UniProt P17787+P43681, V278A); conditions: no ACh
Sequence of α4β2 nAChRs containing the β2^V278A subunit (P43681 27-627): as the sequence (P43681 27-627) above
Sequence of α4β2 nAChRs containing the β2^V278A subunit (P17787 26-502 V278A): as the sequence (P17787 26-502) above, with V253A counted along it
Excerpt: (§1) Human nAChR subunit cDNAs in plasmid expression vector pSP64GL (pSP64GL-α4 and pSP64GL-β2) have been described previously.[18] […] Note that the numbering of these amino acids in the human nAChR α4 and β2 subunits is based on the intact protein sequence (including the signal sequence), as indicated in the EMBL/GenBank database entries NP_000735.1 and NP_000739.1, respectively.

[5] = target: α4β2 nAChRs containing mutated α4^S284A (Homo sapiens, UniProt P17787+P43681, S284A); conditions: no ACh
Sequence of α4β2 nAChRs containing mutated α4^S284A (P43681 27-627 S284A): as the sequence (P43681 27-627) above, with S258A counted along it
Sequence of α4β2 nAChRs containing mutated α4^S284A (P17787 26-502, stated change not applied): as the sequence (P17787 26-502) above
Excerpt: as §1

[6] = target: α4β2 nAChRs containing mutated α4^L283A (Homo sapiens, UniProt P17787+P43681, L283A); conditions: no ACh
Sequence of α4β2 nAChRs containing mutated α4^L283A (P43681 27-627 L283A): as the sequence (P43681 27-627) above, with L257A counted along it
Sequence of α4β2 nAChRs containing mutated α4^L283A (P17787 26-502): as the sequence (P17787 26-502) above
Excerpt: as §1

[7] = target: T2, human α4β2 nAChR (Homo sapiens, UniProt P17787+P43681); assay: Two-electrode voltage-clamp recording, heterologously expressed α4β2 nAChRs (stoichiometry not distinguished); format: cell-based; conditions: wild-type, no ACh
T2 construct: expressed in transfected cells; host or cells: Xenopus laevis oocytes (cRNA injection)
T2 sequence (P43681 27-627): as the sequence (P43681 27-627) above
T2 sequence (P17787 26-502): as the sequence (P17787 26-502) above
Method: as §2
Xenopus oocytes were isolated, maintained, and injected with cRNA, as described previously.[21] Two-electrode voltage-clamp recordings were performed using a Warner Instruments OC-725C amplifier (Harvard Apparatus) with the oocyte membrane potential held at −60 mV, as described previously.[22] Oocytes were continuously perfused with a modified Ringer’s solution (115 mM NaCl, 2.5 mM KCl, 1.8 mM BaCl2, and 10 mM HEPES, pH 7.3). Application of compounds was controlled by LabChart software (AD Instruments) using a BPS-8 solenoid valve solution exchange system (ALA Scientific Inc.). Typically, agonists were applied for 5 s or until a plateau in the response was observed. Antagonists were preapplied for 30 s and then coapplied with agonist for 5 s or until a plateau in the response was observed.

[8] = 100 μM antibiotic coapplied with a range of ACh concentrations

| SMILES | stoichiometry selectivity of antagonism, (α4)2(β2)3 versus (α4)3(β2)2 nAChRs [2] | remaining activity at 100 µM [2] | remaining activity at 100 µM [3] | further results |
| --- | --- | --- | --- | --- |
| CCn1cc(C(=O)O)c(=O)c2cc(F)c(N3CCN(C)CC3)cc21 [pefloxacin] | – | – | – | mode of action on α7 nAChR [1]: noncompetitive antagonist |
| CCN1CCN(c2cc3c(cc2F)c(=O)c(C(=O)O)cn3C2CC2)CC1 [enrofloxacin] | significantly greater antagonism on (α4)2(β2)3 nAChRs than on (α4)3(β2)2 nAChRs | 13.2 ± 0.46% | 64.8 ± 1.01% | – |
| CCn1cc(C(=O)O)c(=O)c2cc(F)c(N3CCNCC3)cc21 [norfloxacin] | significantly greater antagonism on (α4)2(β2)3 nAChRs than on (α4)3(β2)2 nAChRs | 13 ± 1% | 54.1 ± 3.4% | – |
| CCn1cc(C(=O)O)c(=O)c2cc(F)c(N3CCNCC3)nc21 [enoxacin] | significantly greater antagonism on (α4)2(β2)3 nAChRs than on (α4)3(β2)2 nAChRs | 23.5 ± 1.65% | 74.6 ± 1.88% | – |
| CC(=O)OCC[N+](C)(C)C [ACh, acetylcholine] | – | – | – | Hill coefficient of ACh dose-response curve ([3]; absence of antibiotic): 0.74 ± 0. |
| CCn1nc(C(=O)O)c(=O)c2cc3c(cc21)OCO3 [cinoxacin] | – | 58.2 ± 1.2% | 60.4 ± 0.61% | effect when applied alone [4]: no effect; effect when applied alone [5]: no effect; effect when applied alone [6]: no effect; Hill coefficient of ACh dose-response curve in the presence of the antibiotic ([2]; 100 μM antibiotic): 1.0 ± 0.1; maximal normalized ACh response in the presence of the antibiotic [2, 8]: 76.0 ± 1.5%; effect when applied alone [7]: no effect; Hill coefficient of ACh dose-response curve in the presence of the antibiotic ([3]; 100 μM antibiotic): 0.62 ± 0.2; maximal normalized ACh response in the presence of the antibiotic [3, 8]: 80.0 ± 0.9% |
| CN1CCN(c2cc3c(cc2F)c(=O)c(C(=O)O)cn3-c2ccc(F)cc2)CC1 [difloxacin] | significantly greater antagonism on (α4)2(β2)3 nAChRs than on (α4)3(β2)2 nAChRs | 39.9 ± 3.02% | 57.2 ± 0.97% | – |
| C[C@@H]1CN(c2c(F)c(N)c3c(=O)c(C(=O)O)cn(C4CC4)c3c2F)C[C@H](C)N1 [sparfloxacin] | significantly greater antagonism on (α4)2(β2)3 nAChRs than on (α4)3(β2)2 nAChRs | 17.4 ± 1.12% | 58.4 ± 1.72% | – |
| CCn1cc(C(=O)O)c(=O)c2cc3c(cc21)OCO3 [oxolinic acid] | no significant difference | 59.5 ± 0.99% | 60.4 ± 0.72% | – |
